Assay results: PubChem BioAssay (NCI)
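These data come from cells grown in 96-well plates and exposed to compound for 48 hours at five concentrations. GI50: concentration for 50% inhibition of growth. TGI: concentration producing complete growth inhibition.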

Experiments:
Test in all cases: NCI tumour cell line growth inhibition, 48 h
[1] = test system: A549 NSCLC
[2] = test system: HOP-92 NSCLC
[3] = test system: HT29 colon
[4] = test system: MOLT-4 leukemia
[5] = test system: NCI-H226 lung
[6] = test system: SF-268 CNS
[7] = test system: SF-295 CNS
[8] = test system: TK-10 renal
[9] = test system: UACC-257 melanoma
[10] = test system: M14 melanoma

## Fc1cc(C2=Nn3c(nnc3-c3cc(F)c(Cl)cc3Cl)SC2)c(Cl)cc1Cl
[1]
  GI50: 23.7 µM
  TGI: 83.5 µM
[2]
  GI50: 11.3 µM
  TGI: > 100 µM
[3]
  GI50: 20.1 µM
  TGI: 56.3 µM
[4]
  GI50: 16.9 µM
  TGI: 74.2 µM
[5]
  GI50: 14.9 µM
  TGI: 36 µM
[6]
  GI50: 18.5 µM
  TGI: 61.3 µM
[7]
  GI50: 20.3 µM
  TGI: 51.9 µM
[8]
  GI50: 37.4 µM
  TGI: > 100 µM
[9]
  GI50: 30.2 µM
  TGI: > 100 µM

## CC12CCC3C(CCC4(O)C=CCCC34C=O)C1(O)CC(O)C2c1ccc(=O)oc1 (centres undefined)
[1]
  TGI: 0.0646 µM
[2]
  TGI: 0.267 µM
[3]
  TGI: 1.71 µM
[4]
  TGI: 0.394 µM
[5]
  TGI: 0.369 µM
[6]
  TGI: 0.0754 µM
[7]
  TGI: 0.149 µM
[9]
  TGI: 0.478 µM

## Cc1ccc(NCCO)cc1
[1]
  TGI: > 100 µM
[2]
  TGI: > 100 µM
[3]
  TGI: > 100 µM
[10]
  TGI: > 100 µM
[4]
  TGI: > 100 µM
[5]
  TGI: > 100 µM
[6]
  TGI: > 100 µM
[7]
  TGI: > 100 µM
[8]
  TGI: > 100 µM
[9]
  TGI: > 100 µM

## COc1ccc(-c2nnc3c4ccccc4sn23)cc1
[1]
  TGI: > 100 µM
[2]
  TGI: > 100 µM
[3]
  TGI: > 100 µM
[10]
  TGI: > 100 µM
[4]
  TGI: > 100 µM
[6]
  TGI: > 100 µM
[8]
  TGI: > 100 µM
[9]
  TGI: 73.8 µM

## Cc1cc(C)c(S(=O)(=O)N(CCCCCCN)OCCCON(CCCCCCN)S(=O)(=O)c2c(C)cc(C)cc2C)c(C)c1
[1]
  TGI: 3.24 µM
[2]
  TGI: 2.96 µM
[3]
  TGI: 3.05 µM
[10]
  TGI: 3.03 µM
[6]
  TGI: 3.42 µM
[7]
  TGI: 3.41 µM
[8]
  TGI: 3.07 µM
[9]
  TGI: 3.27 µM

## COc1ccc2c(c1)C(=O)/C(=C/c1ccccc1)C2
[2]
  TGI: > 100 µM
[3]
  TGI: > 100 µM
[10]
  TGI: > 100 µM
[4]
  TGI: > 100 µM
[5]
  TGI: > 100 µM
[7]
  TGI: > 100 µM

## CCCCN(CCCC)C1(c2cc3ccccc3s2)CCCCC1
[1]
  TGI: 34 µM
[2]
  TGI: 25.5 µM
[3]
  TGI: 27.5 µM
[10]
  TGI: 30.6 µM
[4]
  TGI: 28.8 µM
[5]
  TGI: 33.9 µM
[6]
  TGI: 34 µM
[7]
  TGI: 26.8 µM
[8]
  TGI: 31.2 µM
[9]
  TGI: 34 µM

## CC1(C)CCCC2(C)[C@@H]1CC[C@]13C[C@](C)(CC[C@@H]21)[C@@H]3CO (some centres undefined)
[1]
  TGI: > 100 µM
[2]
  TGI: > 100 µM
[3]
  TGI: > 100 µM
[10]
  TGI: > 100 µM
[4]
  TGI: > 100 µM
[5]
  TGI: > 100 µM
[6]
  TGI: > 100 µM
[7]
  TGI: > 100 µM
[8]
  TGI: > 100 µM
[9]
  TGI: > 100 µM

## CCNc1nc2c(=O)n(C)c(=O)n(C)c2s1
[1]
  TGI: > 100 µM
[2]
  TGI: > 100 µM
[3]
  TGI: > 100 µM
[10]
  TGI: > 100 µM
[4]
  TGI: > 100 µM
[5]
  TGI: > 100 µM
[6]
  TGI: > 100 µM
[7]
  TGI: > 100 µM
[8]
  TGI: > 100 µM
[9]
  TGI: > 100 µM

## C=C1CC2(C)CCC(OC(=O)C3(C)OC3C)C(C)(OC(C)=O)C2CC1=C(C)C (centres undefined)
[1]
  TGI: > 100 µM
[2]
  TGI: > 100 µM
[3]
  TGI: > 100 µM
[10]
  TGI: > 100 µM
[4]
  TGI: > 100 µM
[6]
  TGI: > 100 µM
[7]
  TGI: > 100 µM
[8]
  TGI: > 100 µM
[9]
  TGI: > 100 µM

## O=C(O)CSc1nc2ccccc2[nH]1
[1]
  TGI: > 100 µM
[2]
  TGI: > 100 µM
[3]
  TGI: > 100 µM
[10]
  TGI: > 100 µM
[4]
  TGI: > 100 µM
[6]
  TGI: > 100 µM
[7]
  TGI: > 100 µM
[8]
  TGI: > 100 µM
[9]
  TGI: > 100 µM

## ClCc1nnc2n1-c1ccc(Cl)cc1SC2
[1]
  TGI: 20.3 µM
[2]
  TGI: 9.26 µM
[3]
  TGI: 10.2 µM
[4]
  TGI: 3.98 µM
[5]
  TGI: 5.64 µM
[6]
  TGI: 9.55 µM
[7]
  TGI: 15.5 µM
[9]
  TGI: 9.8 µM

## NCCSC1(O)C(=O)c2ccccc2-c2ccccc21 (centres undefined)
[1]
  TGI: 2.91 µM
[2]
  GI50: 1.3 µM
  TGI: 2.62 µM
[3]
  TGI: 3.8 µM
[10]
  TGI: 4.25 µM
[4]
  TGI: 1.21 µM
[5]
  TGI: 2.99 µM
[6]
  TGI: 2.91 µM
[7]
  TGI: 2.28 µM
[8]
  TGI: 3.26 µM
[9]
  TGI: 2.09 µM

## CCOC(=O)c1csc(NC(=O)CCN2CCOCC2)n1
[1]
  TGI: > 100 µM
[2]
  TGI: > 100 µM
[3]
  TGI: > 100 µM
[10]
  TGI: > 100 µM
[4]
  TGI: 81.1 µM
[7]
  TGI: > 100 µM
[8]
  TGI: > 100 µM
[9]
  TGI: > 100 µM

## COc1cc(CN(C)N2C(=O)c3cccc4cc([N+](=O)[O-])cc(c34)C2=O)cc(OC)c1OC
[2]
  TGI: > 100 µM
[3]
  TGI: > 100 µM
[10]
  TGI: > 100 µM
[4]
  TGI: > 100 µM
[5]
  TGI: > 100 µM
[7]
  TGI: > 100 µM

## O=C(NC/C=C/CO)c1ccccc1
[1]
  TGI: > 100 µM
[3]
  TGI: > 100 µM
[4]
  TGI: > 100 µM
[5]
  TGI: > 100 µM
[6]
  TGI: > 100 µM
[7]
  TGI: > 100 µM
[9]
  TGI: > 100 µM

## O=c1n(Cc2ccccc2)c2ccccc2n1CC1CS1 (centres undefined)
[1]
  TGI: > 100 µM
[2]
  TGI: > 100 µM
[10]
  TGI: > 100 µM
[4]
  TGI: > 100 µM
[5]
  TGI: > 100 µM
[6]
  TGI: > 100 µM
[7]
  TGI: > 100 µM
[8]
  TGI: > 100 µM
